This is an account of results in US20260232662A1, “MIR-124 INDUCER, AND PREPARATION METHOD THEREFOR AND USE THEREOF” (NANJING SYNNOCARE PHARMACEUTICAL TECHNOLOGY CO., LTD., priority 2023, published 2026).

The experiment concerns miR-124. The experiment can be described thus: Induction of miR-124 expression in PBMC cells (qPCR). The format is cell-based. Particulars: Homo sapiens, 72 h, 0.1 μM compound, human PBMCs stimulated with PMA/ionomycin, miR-191 reference gene, read-out: miR-124 expression, Fold change vs DMSO. On the procedure:
This study evaluated the ability of the compound of the present invention to influence miR-124 transcriptional activity in vitro. The experiment analyzed miR-124 expression in human PBMCs (Sailybio) using quantitative PCR (qPCR).
Thawed human PBMCs (1 mL) were added to 19 mL of culture medium (RPMI1640+10% hFBS+1‰ 2-mercaptoethanol) and the PBMCs were incubated in a cell culture incubator for 30 minutes. The PBMCs were collected and the cells (3.0*10^6 cells/well/3 mL) were resuspended in medium containing PMA (10 ng/mL; Invivogen) and ionomycin (200 ng/mL; Invivogen). The cells were incubated in a 6-well plate for 48 hours. Diluted compound was added to the cells to achieve a final concentration of 0.1 μM. After 72 hours, the samples were centrifuged and the cells were collected.
Total miRNA was extracted from the cells using the MiPure Cell/Tissue miRNA Kit (Vazyme) according to the manufacturer's instructions, followed by purification. The purified samples were treated with genomic DNA elimination buffer, and reverse transcription was performed using a GeneAmp PCR System. The resulting cDNA was subjected to quantitative real-time PCR (qPCR) analysis on a QuantStudio™ 7 Flex Real-Time PCR System. Data analysis was performed using the QuantStudio 7 software with default settings to automatically determine Ct values, and the results were exported. In this assay, miR-191 was used as the reference gene, and the DMSO-treated group served as the control. The relative expression of miR-124 was calculated using the following formula: […]
As for `FC(F)(F)Oc1ccc(Nc2nc3ccc(Br)c(Cl)c3n3ccnc23)cc1` [Compound B18, 8-bromo-9-chloro-N-(4-(trifluoromethoxy)phenyl)imidazolo [1,2-a]quinoxalin-4-amine], the fold induction at 0.1 µM was 22.6.

Take `FC(F)(F)Oc1ccc(Nc2nc3cc(Cl)cc(Cl)c3n3ccnc23)cc1` [Compound B21, 7,9-dichloro-N-(4-(trifluoromethoxy)phenyl)imidazolo [1,2-a]quinoxalin-4-amine]: the fold induction at 0.1 µM amounted to 35.2.

Turning to `Fc1cc(Cl)c2c(c1)nc(Nc1ccc(OC(F)(F)F)cc1)c1nccn12` [Compound B22, 9-chloro-7-fluoro-N-(4-(trifluoromethoxy)phenyl)imidazolo [1,2-a]quinoxalin-4-amine], the fold induction at 0.1 µM is 32.5.

`FC(F)(F)Oc1ccc(Nc2nc3cc(Br)cc(Cl)c3n3ccnc23)cc1` [Compound B23, 7-bromo-9-Chloro-N-(4-(trifluoromethoxy)phenyl)imidazolo [1,2-a]quinoxalin-4-amine]: the fold induction at 0.1 µM came to 25.2.

Take `FC(F)(F)Oc1ccc(Nc2nc3cc(Cl)c(Cl)cc3n3ccnc23)cc1` [Compound B24, 7,8-dichloro-N-(4-(trifluoromethoxy)phenyl)imidazolo [1,2-a]quinoxalin-4-amine]: the fold induction at 0.1 µM was determined as 26.7.

As for `Fc1cc2nc(Nc3ccc(OC(F)(F)F)cc3)c3nccn3c2cc1Cl` [Compound B25, 8-chloro-7-fluoro-N-(4-(trifluoromethoxy)phenyl)imidazolo [1,2-a]quinoxalin-4-amine], the fold induction at 0.1 µM is 23.4.

On to `Fc1cc(F)c2c(c1)nc(Nc1ccc(OC(F)(F)F)cc1)c1nccn12` [Compound B30, 7,9-difluoro-N-(4-(trifluoromethoxy)phenyl)imidazolo [1,2-a]quinoxalin-4-amine], for which the fold induction at 0.1 µM is 22.5.

As for `Fc1cc(Cl)cc2nc(Nc3ccc(OC(F)(F)F)cc3)c3nccn3c12` [Compound B31, 7-chloro-9-fluoro-N-(4-(trifluoromethoxy)phenyl)imidazolo [1,2-a]quinoxalin-4-amine], the fold induction at 0.1 µM was found to be 24.4.

For `Fc1cc(Br)cc2nc(Nc3ccc(OC(F)(F)F)cc3)c3nccn3c12` [Compound B32, 7-bromo-9-fluoro-N-(4-(trifluoromethoxy)phenyl)imidazolo [1,2-a]quinoxalin-4-amine], the fold induction at 0.1 µM stood at 19.7.

For `FC(F)(F)c1ccc(Nc2nc3cccc(Cl)c3n3ccnc23)cc1` [Compound B49, 9-chloro-N-(4-(trifluoromethyl)phenyl)imidazolo [1,2-a]quinoxalin-4-amine], the fold induction at 0.1 µM turned out to be 32.

`FC(F)(F)Sc1ccc(Nc2nc3cccc(Cl)c3n3ccnc23)cc1` [Compound B50, 9-chloro-N-(4-(trifluoromethylthio)phenyl)imidazolo [1,2-a]quinoxalin-4-amine]: the fold induction at 0.1 µM worked out at 21.3.

Consider `FC1(F)Oc2ccc(Nc3nc4cccc(Cl)c4n4ccnc34)cc2O1` [Compound B52, 9-chloro-N-(2,2-difluorobenzo[d] [1,3]dihydroxy-5-yl) imidazolo[1,2-a]quinoxalin-4-amine], for which the fold induction at 0.1 µM came to 30.2.

`Fc1cc(Nc2nc3cccc(Cl)c3n3ccnc23)ccc1C(F)(F)F` [Compound B53, 9-chloro-N-(3-Fluoro-4-(trifluoromethyl)phenyl)imidazolo [1,2-a]quinoxalin-4-amine]: the fold induction at 0.1 µM turned out to be 36.8.

For `Fc1cc(Nc2nc3cccc(Cl)c3n3ccnc23)ccc1OC(F)(F)F` [Compound B55, 9-chloro-N-(3-Fluoro-4-(trifluoromethoxy)phenyl)imidazolo [1,2-a]quinoxalin-4-amine], the fold induction at 0.1 µM worked out at 36.3.

Take `FC(F)(F)Oc1ccc(Nc2nc3cccc(Cl)c3n3ccnc23)cc1Cl` [Compound B56, 9-chloro-N-(3-chloro-4-(trifluoromethoxy)phenyl)imidazolo [1,2-a]quinoxalin-4-amine]: the fold induction at 0.1 µM came to 40.7.

For the compound `FC(F)Oc1ccc(Nc2nc3cccc(Cl)c3n3ccnc23)cc1` [Compound B59, 9-chloro-N-(4-(difluoromethoxy)phenyl)imidazolo [1,2-a]quinoxalin-4-amine], the fold induction at 0.1 µM came to 25.4.

In the case of `FS(F)(F)(F)(F)c1ccc(Nc2nc3cccc(Cl)c3n3ccnc23)cc1` [Compound B60, 9-chloro-N-(4-(thiopentafluoride)phenyl)imidazolo[1,2-a]quinoxalin-4-amine], the fold induction at 0.1 µM is 24.8.

As for `CSc1ccc(Nc2nc3cccc(Cl)c3n3ccnc23)cc1` [Compound B61, 9-chloro-N-(4-(methylthio)phenyl) imidazolo [1,2-a]quinoxalin-4-amine], the fold induction at 0.1 µM amounted to 19.9.

For `FC(F)(F)c1ccc(Nc2nc3cccc(Cl)c3n3ccnc23)nc1` [Compound B67, 9-chloro-N-(5-(trifluoromethyl)pyridin-2-yl) imidazolo [1,2-a]quinoxalin-4-amine], the fold induction at 0.1 µM worked out at 23.4.

As for `Fc1cccc2nc(Nc3ccc4c(c3)OC(F)(F)O4)c3nccn3c12` [Compound B75, 9-fluoro-N-(2,2-difluorobenzo[d] [1,3]dihydroxy-5-yl) imidazolo[1,2-a] quinoxalin-4-amine], the fold induction at 0.1 µM was 29.5.

In the case of `Fc1cc(Nc2nc3cccc(F)c3n3ccnc23)ccc1OC(F)(F)F` [Compound B76, 9-fluoro-N-(3-fluoro-4-(trifluoromethoxy)phenyl) imidazolo[1,2-a] quinoxalin-4-amine], the fold induction at 0.1 µM was 18.5.

With `Fc1cccc2nc(Nc3ccc(OC(F)(F)F)c(Cl)c3)c3nccn3c12` [Compound B77, 9-fluoro-N-(3-chloro-4-(trifluoromethoxy)phenyl) imidazolo[1,2-a]quinoxalin-4-amine], the fold induction at 0.1 µM was determined as 23.1.

For the compound `Fc1cccc2nc(Nc3ccc(C(F)(F)F)cc3)c3nccn3c12` [Compound B78, 9-fluoro-N-(4-(trifluoromethyl)phenyl) imidazolo[1,2-a] quinoxalin-4-amine], the fold induction at 0.1 µM was found to be 14.9.

Consider `Fc1cc(Nc2nc3cccc(F)c3n3ccnc23)ccc1C(F)(F)F` [Compound B79, 9-fluoro-N-(3-fluoro-4-(trifluoromethyl)phenyl) imidazolo[1,2-a] quinoxalin-4-amine], for which the fold induction at 0.1 µM was 22.3.

Take `Fc1cccc2nc(Nc3ccc(C(F)(F)F)c(Cl)c3)c3nccn3c12` [Compound B80, 9-fluoro-N-(3-chloro-4-(trifluoromethyl)phenyl) imidazolo[1,2-a] quinoxalin-4-amine]: the fold induction at 0.1 µM was 17.2.

Turning to `Fc1cc(Cl)cc2nc(Nc3ccc4c(c3)OC(F)(F)O4)c3nccn3c12` [Compound B87, 7-chloro-9-fluoro-N-(2,2-difluorobenzo[d] [1,3]dihydroxy-5-yl)imidazo[1,2-a] quinoxalin-4-amine], the fold induction at 0.1 µM was found to be 15.8.

On to `Fc1cc(Nc2nc3cc(Cl)cc(F)c3n3ccnc23)ccc1OC(F)(F)F` [Compound B88, 7-chloro-9-fluoro-N-(3-fluoro-4-(trifluoromethoxy)phenyl) imidazolo[1,2-a] quinoxalin-4-amine], for which the fold induction at 0.1 µM turned out to be 20.1.

Take `Fc1cc(Cl)cc2nc(Nc3ccc(OC(F)(F)F)c(Cl)c3)c3nccn3c12` [Compound B89, 7-chloro-9-fluoro-N-(3-chloro-4-(trifluoromethoxy)phenyl) imidazolo[1,2-a] quinoxalin-4-amine]: the fold induction at 0.1 µM was 22.3.
